According to PubChem BioAssay AID2060618 (Molecular Pharmacology Branch, DTP, NCI, 2025):

Test system: 454973-116-R2-J3-PDC spheroids, percent test/control viability
Test: Anticancer human tumor 454973-116-R2-J3-PDC patient-derived pancreatic carcinoma cell line growth inhibition [CLK]
Conditions: spheroids with HUVEC and MSC; for IC50: curve of first compound; for viability, T/C: stronger effect = lower value; active = viability on the fitted dose curve at most 10% of control; inactive = the rest
Method in brief: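 Patient-derived tumor cells grown as complex spheroids with HUVEC endothelial cells and mesenchymal stem cells, treated with drug combinations. Concentrations descend in half-log steps from near clinical Cmax, or from 10 microM if Cmax unknown.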
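Note: spheroids exposed to compounds for 7 days before readout.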

CC(C)CC(NC(=O)C(Cc1ccccc1)NC(=O)c1cnccn1)B(O)O (centres undefined) + CN1CCN(c2cc(C(=O)Nc3cc4cc(-c5cnn(C)c5)ccc4cn3)ccn2)CC1
1.5 nM: IC50 (second compound 0.1 µM)
< 0.949 nM: IC50 (second compound 0.316 µM) | IC50 (second compound 1 µM) | IC50 (second compound 3.16 µM) | IC50 (second compound 10 µM)
3.31 nM: IC50 (second compound 0.0316 µM)
inactive: viability, T/C (second compound 0.0316 µM, first compound 0.000949 µM) 94.4% | viability, T/C (second compound 0.0316 µM, first compound 0.003 µM) 54.7% | viability, T/C (second compound 0.1 µM, first compound 0.000949 µM) 73.7% | viability, T/C (second compound 0.1 µM, first compound 0.003 µM) 14.8%
active: viability, T/C (second compound 0.0316 µM, first compound 0.00949 µM) 0.27% | viability, T/C (second compound 0.0316 µM, first compound 0.03 µM) 0.3% | viability, T/C (second compound 0.0316 µM, first compound 0.0949 µM) 0.17% | viability, T/C (second compound 0.0316 µM, first compound 0.3 µM) 0.14% | viability, T/C (second compound 0.1 µM, first compound 0.00949 µM) 0.41% | viability, T/C (second compound 0.1 µM, first compound 0.03 µM) 0.19% | viability, T/C (second compound 0.1 µM, first compound 0.0949 µM) 0.16% | viability, T/C (second compound 0.1 µM, first compound 0.3 µM) 0.14% | viability, T/C (second compound 0.316 µM, first compound 0.000949 µM) 2.21% | viability, T/C (second compound 0.316 µM, first compound 0.003 µM) 0.7% | viability, T/C (second compound 0.316 µM, first compound 0.00949 µM) 1.43% | viability, T/C (second compound 0.316 µM, first compound 0.03 µM) 0.12% | viability, T/C (second compound 0.316 µM, first compound 0.0949 µM) 0.11% | viability, T/C (second compound 0.316 µM, first compound 0.3 µM) 0.09% | viability, T/C (second compound 1 µM, first compound 0.000949 µM) 0.12% | viability, T/C (second compound 1 µM, first compound 0.003 µM) 0.19% | viability, T/C (second compound 1 µM, first compound 0.00949 µM) 0.09% | viability, T/C (second compound 1 µM, first compound 0.03 µM) 0.05% | viability, T/C (second compound 1 µM, first compound 0.0949 µM) 0.07% | viability, T/C (second compound 1 µM, first compound 0.3 µM) 0.07% | viability, T/C (second compound 3.16 µM, first compound 0.000949 µM) 0.16% | viability, T/C (second compound 3.16 µM, first compound 0.003 µM) 1.02% | viability, T/C (second compound 3.16 µM, first compound 0.00949 µM) 0.07% | viability, T/C (second compound 3.16 µM, first compound 0.03 µM) 0.05% | viability, T/C (second compound 3.16 µM, first compound 0.0949 µM) 0.6% | viability, T/C (second compound 3.16 µM, first compound 0.3 µM) 0.79% | viability, T/C (second compound 10 µM, first compound 0.000949 µM) 0.09% | viability, T/C (second compound 10 µM, first compound 0.003 µM) 0.13% | viability, T/C (second compound 10 µM, first compound 0.00949 µM) 0.88% | viability, T/C (second compound 10 µM, first compound 0.03 µM) 0.09% | viability, T/C (second compound 10 µM, first compound 0.0949 µM) 0.16% | viability, T/C (second compound 10 µM, first compound 0.3 µM) 0.17%

CC1COCCN1c1cc(C2(S(C)(=N)=O)CC2)nc(-c2ccnc3[nH]ccc23)n1 (centres undefined) + CN1CCN(c2cc(C(=O)Nc3cc4cc(-c5cnn(C)c5)ccc4cn3)ccn2)CC1
7240 nM: IC50 (second compound 0.0316 µM)
4520 nM: IC50 (second compound 0.1 µM)
active: viability, T/C (second compound 0.316 µM, first compound 0.0316 µM) 1.53% | viability, T/C (second compound 0.316 µM, first compound 0.1 µM) 2.23% | viability, T/C (second compound 0.316 µM, first compound 0.316 µM) 1.84% | viability, T/C (second compound 0.316 µM, first compound 1 µM) 1.74% | viability, T/C (second compound 0.316 µM, first compound 3.16 µM) 1.04% | viability, T/C (second compound 0.316 µM, first compound 10 µM) 0.46% | viability, T/C (second compound 1 µM, first compound 0.0316 µM) 0.13% | viability, T/C (second compound 1 µM, first compound 0.1 µM) 0.13% | viability, T/C (second compound 1 µM, first compound 0.316 µM) 0.16% | viability, T/C (second compound 1 µM, first compound 1 µM) 0.1% | viability, T/C (second compound 1 µM, first compound 3.16 µM) 0.11% | viability, T/C (second compound 1 µM, first compound 10 µM) 0.1% | viability, T/C (second compound 3.16 µM, first compound 0.0316 µM) 0.17% | viability, T/C (second compound 3.16 µM, first compound 0.1 µM) 0.21% | viability, T/C (second compound 3.16 µM, first compound 0.316 µM) 0.22% | viability, T/C (second compound 3.16 µM, first compound 1 µM) 0.2% | viability, T/C (second compound 3.16 µM, first compound 3.16 µM) 0.15% | viability, T/C (second compound 3.16 µM, first compound 10 µM) 0.21% | viability, T/C (second compound 10 µM, first compound 0.0316 µM) 1.56% | viability, T/C (second compound 10 µM, first compound 0.1 µM) 0.21% | viability, T/C (second compound 10 µM, first compound 0.316 µM) 0.22% | viability, T/C (second compound 10 µM, first compound 1 µM) 0.31% | viability, T/C (second compound 10 µM, first compound 3.16 µM) 0.25% | viability, T/C (second compound 10 µM, first compound 10 µM) 0.6%
inactive: viability, T/C (second compound 0.0316 µM, first compound 0.0316 µM) 97.4% | viability, T/C (second compound 0.0316 µM, first compound 0.1 µM) 105% | viability, T/C (second compound 0.0316 µM, first compound 0.316 µM) 96.2% | viability, T/C (second compound 0.0316 µM, first compound 1 µM) 106% | viability, T/C (second compound 0.0316 µM, first compound 3.16 µM) 83.3% | viability, T/C (second compound 0.0316 µM, first compound 10 µM) 37.1% | viability, T/C (second compound 0.1 µM, first compound 0.0316 µM) 73.4% | viability, T/C (second compound 0.1 µM, first compound 0.1 µM) 80.5% | viability, T/C (second compound 0.1 µM, first compound 0.316 µM) 91.4% | viability, T/C (second compound 0.1 µM, first compound 1 µM) 77.5% | viability, T/C (second compound 0.1 µM, first compound 3.16 µM) 62.9% | viability, T/C (second compound 0.1 µM, first compound 10 µM) 21.5%
< 31.6 nM: IC50 (second compound 0.316 µM) | IC50 (second compound 1 µM) | IC50 (second compound 3.16 µM) | IC50 (second compound 10 µM)
